Test results published in patent US11969428B2, “Methods and pharmaceutical compositions for treating lymphoid malignancy” (priority 2011, dated 2024).

Key:
Assay in all cases: Ambit KinomeScan screening
Type in all cases: binding
Conditions in all cases: CAL-130 10 μM
[1] = biological target: T1, AAK1 (Homo sapiens, UniProt Q2M2I8)
T1 construct: unspecified tag ("tagged kinases"); purchased Ambit (KinomeScan screening)
Summary of the method: (§1)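 Here, % of control binding was determined for tagged kinases captured by an immobilized ligand in the presence of 10 μM CAL-130. Stronger interactions give lower percentages.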

[2] = biological target: T2, ABL1(Q252H) (Homo sapiens, UniProt P00519, Q252H)
T2 construct: unspecified tag ("tagged kinases"); purchased Ambit (KinomeScan screening)
Summary of the method: as §1

[3] = biological target: T3, ALK (Homo sapiens, UniProt Q9UM73)
T3 construct: purchased Ambit (KinomeScan screening)
Summary of the method: as §1

[4] = biological target: T4, ASK2 (Homo sapiens, UniProt O95382)
T4 construct: purchased Ambit (KinomeScan screening service)
Summary of the method: as §1

[5] = biological target: T5, CLK2 (Homo sapiens, UniProt P49760)
T5 construct: purchased Ambit (KinomeScan screening service)
Summary of the method: as §1

[6] = biological target: T6, CSNK1E (Homo sapiens, UniProt P49674)
T6 construct: purchased Ambit (KinomeScan screening service)
Summary of the method: as §1

[7] = biological target: T7, CSNK1G2 (Homo sapiens, UniProt P78368)
T7 construct: purchased Ambit (KinomeScan screening service)
Summary of the method: as §1

[8] = biological target: T8, DLK (Homo sapiens, UniProt Q12852)
T8 construct: unspecified tag ("tagged kinases"); purchased Ambit (KinomeScan screening service)
Summary of the method: as §1

[9] = biological target: T9, DRAK2 (Homo sapiens, UniProt O94768)
T9 construct: unspecified tag ("tagged kinases"); purchased Ambit (KinomeScan screening service)
Summary of the method: as §1

[10] = biological target: T10, EPHA8 (Homo sapiens, UniProt P29322)
T10 construct: purchased Ambit (KinomeScan screening service)
Summary of the method: as §1

[11] = biological target: T11, ERBB2 (Homo sapiens, UniProt P04626)
T11 construct: purchased Ambit (KinomeScan screening service)
Summary of the method: as §1

[12] = biological target: T12, ERN1 (Homo sapiens, UniProt O75460)
T12 construct: unspecified tag ("tagged kinases"); purchased Ambit (KinomeScan screening service)
Summary of the method: as §1

[13] = biological target: T13, FER (Homo sapiens, UniProt P16591)
T13 construct: unspecified tag ("tagged kinases"); purchased Ambit (KinomeScan screening service)
Summary of the method: as §1

[14] = biological target: T14, FES (Homo sapiens, UniProt P07332)
T14 construct: unspecified tag ("tagged kinases"); purchased Ambit (KinomeScan screening service)
Summary of the method: as §1

[15] = biological target: T15, FLT3(N841I) (Homo sapiens, UniProt P36888, N841I)
T15 construct: unspecified tag; purchased Ambit (KinomeScan screening service)
Summary of the method: as §1

[16] = biological target: T16, ICK (Homo sapiens, UniProt Q9UPZ9)
T16 construct: Ambit (KinomeScan screening)
Summary of the method: as §1

[17] = biological target: T17, KIT (Homo sapiens, UniProt P10721)
T17 construct: purchased Ambit (KinomeScan screening)
Summary of the method: as §1

[18] = biological target: T18, KIT(L576P) (Homo sapiens, UniProt P10721, L576P)
T18 construct: purchased Ambit (KinomeScan screening)
Summary of the method: as §1

[19] = biological target: T19, LATS2 (Homo sapiens, UniProt Q9NRM7)
T19 construct: unspecified tag ('tagged kinases'); purchased Ambit (KinomeScan screening service)
Summary of the method: as §1

[20] = biological target: T20, MAP3K15 (Homo sapiens, UniProt Q6ZN16)
T20 construct: Ambit (KinomeScan screening)
Summary of the method: as §1

[21] = biological target: T21, MARK4 (Homo sapiens, UniProt Q96L34)
T21 construct: purchased Ambit (KinomeScan screening)
Summary of the method: as §1

[22] = biological target: T22, MET (Homo sapiens, UniProt P08581)
T22 construct: purchased Ambit (KinomeScan screening)
Summary of the method: as §1

[23] = biological target: T23, MKNK1 (Homo sapiens, UniProt Q9BUB5)
T23 construct: unspecified tag ('tagged kinases'); purchased Ambit (KinomeScan screening)
Summary of the method: as §1

[24] = biological target: T24, MLK1 (Homo sapiens, UniProt P80192)
T24 construct: unspecified tag ('tagged kinases'); purchased Ambit (KinomeScan screening)
Summary of the method: as §1

[25] = biological target: T25, MYLK (Homo sapiens, UniProt Q15746)
T25 construct: unspecified tag; purchased Ambit (KinomeScan screening panel)
Summary of the method: as §1

[26] = biological target: T26, NEK1 (Homo sapiens, UniProt Q96PY6)
T26 construct: unspecified tag; purchased Ambit (KinomeScan screening panel)
Summary of the method: as §1

[27] = biological target: T27, NEK7 (Homo sapiens, UniProt Q8TDX7)
T27 construct: purchased Ambit (KinomeScan screening service)
Summary of the method: as §1

[28] = biological target: T28, PDGFRB (Homo sapiens, UniProt P09619)
T28 construct: unspecified tag ('tagged kinases'); purchased Ambit (KinomeScan screening)
Summary of the method: as §1

[29] = biological target: T29, PIK3CA (Homo sapiens, UniProt P42336)
T29 construct: unspecified tag; purchased Ambit (KinomeScan screening panel)
Summary of the method: as §1

[30] = biological target: T30, PLK4 (Homo sapiens, UniProt O00444)
T30 construct: purchased Ambit (KinomeScan screening service)
Summary of the method: as §1

[31] = biological target: T31, PRKCE (Homo sapiens, UniProt Q02156)
T31 construct: purchased Ambit (KinomeScan screening service)
Summary of the method: as §1

[32] = biological target: T32, PYK2 (Homo sapiens, UniProt Q14289)
T32 construct: tag (kind not specified); purchased Ambit (KinomeScan screening service)
Summary of the method: as §1

[33] = biological target: T33, TAOK3 (Homo sapiens, UniProt Q9H2K8)
T33 construct: tag (kind not specified); purchased Ambit (KinomeScan screening service)
Summary of the method: as §1

[34] = biological target: T34, TIE1 (Homo sapiens, UniProt P35590)
T34 construct: unspecified tag (tagged kinase); purchased Ambit (KinomeScan screening)
Summary of the method: as §1

[35] = biological target: T35, TXK (Homo sapiens, UniProt P42681)
T35 construct: tag, kind not specified; purchased Ambit (KinomeScan screening service)
Summary of the method: as §1

[36] = biological target: T36, p38-β (Homo sapiens, UniProt Q15759)
T36 construct: purchased Ambit (KinomeScan screening service)
Summary of the method: as §1

T29 sequence (P42336 whole entry): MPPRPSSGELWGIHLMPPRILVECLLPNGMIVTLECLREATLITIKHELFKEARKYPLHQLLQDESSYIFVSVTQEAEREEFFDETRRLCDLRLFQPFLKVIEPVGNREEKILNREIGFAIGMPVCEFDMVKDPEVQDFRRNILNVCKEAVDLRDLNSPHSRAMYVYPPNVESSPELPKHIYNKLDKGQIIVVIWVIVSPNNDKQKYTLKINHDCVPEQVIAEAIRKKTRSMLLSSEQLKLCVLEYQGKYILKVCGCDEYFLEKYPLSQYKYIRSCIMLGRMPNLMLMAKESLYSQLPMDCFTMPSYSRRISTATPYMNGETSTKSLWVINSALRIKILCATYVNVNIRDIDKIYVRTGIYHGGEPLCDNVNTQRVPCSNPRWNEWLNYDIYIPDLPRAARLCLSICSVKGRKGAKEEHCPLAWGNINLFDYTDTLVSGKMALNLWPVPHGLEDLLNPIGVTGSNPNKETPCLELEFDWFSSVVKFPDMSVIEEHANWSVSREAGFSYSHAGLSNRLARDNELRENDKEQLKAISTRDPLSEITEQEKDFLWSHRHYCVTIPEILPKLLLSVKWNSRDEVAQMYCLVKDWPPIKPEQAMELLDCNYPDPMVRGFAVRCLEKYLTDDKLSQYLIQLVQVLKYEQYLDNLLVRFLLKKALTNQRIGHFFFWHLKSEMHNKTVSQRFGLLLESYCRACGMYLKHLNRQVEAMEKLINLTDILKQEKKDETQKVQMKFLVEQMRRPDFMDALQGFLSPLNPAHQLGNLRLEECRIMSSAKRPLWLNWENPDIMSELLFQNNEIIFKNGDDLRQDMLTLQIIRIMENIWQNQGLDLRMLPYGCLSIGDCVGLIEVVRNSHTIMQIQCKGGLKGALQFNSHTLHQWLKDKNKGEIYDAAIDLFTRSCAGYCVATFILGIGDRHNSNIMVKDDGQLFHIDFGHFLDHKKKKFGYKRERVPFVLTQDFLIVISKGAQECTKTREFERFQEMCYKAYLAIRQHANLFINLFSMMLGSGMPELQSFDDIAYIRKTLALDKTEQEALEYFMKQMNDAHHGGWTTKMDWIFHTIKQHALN
T35 sequence (P42681 whole entry): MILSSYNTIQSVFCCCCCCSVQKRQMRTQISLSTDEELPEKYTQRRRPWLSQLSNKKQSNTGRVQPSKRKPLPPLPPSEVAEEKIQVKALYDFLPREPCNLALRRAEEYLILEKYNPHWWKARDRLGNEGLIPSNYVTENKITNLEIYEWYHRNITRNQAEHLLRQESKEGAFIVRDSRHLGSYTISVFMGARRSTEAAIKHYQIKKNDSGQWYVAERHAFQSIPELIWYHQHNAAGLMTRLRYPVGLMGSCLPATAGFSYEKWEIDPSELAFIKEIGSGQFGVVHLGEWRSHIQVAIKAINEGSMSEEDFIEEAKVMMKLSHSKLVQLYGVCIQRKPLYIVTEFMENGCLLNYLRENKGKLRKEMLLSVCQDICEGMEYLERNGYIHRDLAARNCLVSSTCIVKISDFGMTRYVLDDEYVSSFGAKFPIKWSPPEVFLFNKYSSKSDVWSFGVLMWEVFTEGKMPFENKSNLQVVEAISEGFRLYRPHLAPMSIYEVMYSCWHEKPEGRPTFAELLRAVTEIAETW
T10 sequence (P29322 28-1005): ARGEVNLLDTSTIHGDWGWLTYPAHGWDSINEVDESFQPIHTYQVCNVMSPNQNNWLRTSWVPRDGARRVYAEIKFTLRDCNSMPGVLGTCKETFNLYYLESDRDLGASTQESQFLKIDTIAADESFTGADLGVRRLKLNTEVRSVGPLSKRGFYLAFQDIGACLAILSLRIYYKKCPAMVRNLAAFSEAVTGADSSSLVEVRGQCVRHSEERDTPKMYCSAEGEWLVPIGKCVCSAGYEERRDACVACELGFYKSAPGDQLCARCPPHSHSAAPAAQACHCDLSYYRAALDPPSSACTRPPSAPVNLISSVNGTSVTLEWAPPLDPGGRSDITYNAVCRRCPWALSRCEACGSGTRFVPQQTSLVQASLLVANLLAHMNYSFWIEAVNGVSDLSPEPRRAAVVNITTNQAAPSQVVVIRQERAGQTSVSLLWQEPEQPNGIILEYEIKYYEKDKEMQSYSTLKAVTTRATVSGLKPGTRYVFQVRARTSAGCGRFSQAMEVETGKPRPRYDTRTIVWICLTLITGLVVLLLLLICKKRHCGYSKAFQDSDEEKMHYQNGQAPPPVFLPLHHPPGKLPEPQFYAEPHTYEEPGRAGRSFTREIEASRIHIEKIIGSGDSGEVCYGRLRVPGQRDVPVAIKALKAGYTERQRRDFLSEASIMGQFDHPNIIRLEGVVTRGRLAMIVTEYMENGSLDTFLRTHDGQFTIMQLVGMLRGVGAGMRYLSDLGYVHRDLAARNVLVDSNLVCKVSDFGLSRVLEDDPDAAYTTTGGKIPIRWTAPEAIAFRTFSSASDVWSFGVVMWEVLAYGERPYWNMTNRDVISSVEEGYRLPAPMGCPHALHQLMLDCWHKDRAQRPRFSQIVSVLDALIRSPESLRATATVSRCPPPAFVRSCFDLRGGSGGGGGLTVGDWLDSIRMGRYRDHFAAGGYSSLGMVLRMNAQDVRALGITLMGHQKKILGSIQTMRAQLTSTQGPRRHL
T16 sequence (Q9UPZ9 whole entry): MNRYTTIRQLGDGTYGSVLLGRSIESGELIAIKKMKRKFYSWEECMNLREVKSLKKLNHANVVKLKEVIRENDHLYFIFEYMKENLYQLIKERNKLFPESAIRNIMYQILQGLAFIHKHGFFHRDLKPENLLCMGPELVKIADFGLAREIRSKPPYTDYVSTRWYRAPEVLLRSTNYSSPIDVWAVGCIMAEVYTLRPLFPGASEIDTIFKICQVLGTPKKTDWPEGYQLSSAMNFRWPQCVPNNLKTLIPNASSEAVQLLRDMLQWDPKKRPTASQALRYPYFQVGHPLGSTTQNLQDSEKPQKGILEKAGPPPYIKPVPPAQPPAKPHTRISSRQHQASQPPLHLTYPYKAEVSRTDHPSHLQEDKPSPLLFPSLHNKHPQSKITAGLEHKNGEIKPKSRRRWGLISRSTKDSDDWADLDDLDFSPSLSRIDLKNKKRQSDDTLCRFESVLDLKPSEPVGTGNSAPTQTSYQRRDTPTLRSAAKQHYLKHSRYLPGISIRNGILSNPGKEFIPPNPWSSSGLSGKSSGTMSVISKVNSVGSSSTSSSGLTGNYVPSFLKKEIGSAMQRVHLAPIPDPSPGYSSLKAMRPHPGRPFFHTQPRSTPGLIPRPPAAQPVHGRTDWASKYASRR
T18 sequence (P10721 26-976 L576P): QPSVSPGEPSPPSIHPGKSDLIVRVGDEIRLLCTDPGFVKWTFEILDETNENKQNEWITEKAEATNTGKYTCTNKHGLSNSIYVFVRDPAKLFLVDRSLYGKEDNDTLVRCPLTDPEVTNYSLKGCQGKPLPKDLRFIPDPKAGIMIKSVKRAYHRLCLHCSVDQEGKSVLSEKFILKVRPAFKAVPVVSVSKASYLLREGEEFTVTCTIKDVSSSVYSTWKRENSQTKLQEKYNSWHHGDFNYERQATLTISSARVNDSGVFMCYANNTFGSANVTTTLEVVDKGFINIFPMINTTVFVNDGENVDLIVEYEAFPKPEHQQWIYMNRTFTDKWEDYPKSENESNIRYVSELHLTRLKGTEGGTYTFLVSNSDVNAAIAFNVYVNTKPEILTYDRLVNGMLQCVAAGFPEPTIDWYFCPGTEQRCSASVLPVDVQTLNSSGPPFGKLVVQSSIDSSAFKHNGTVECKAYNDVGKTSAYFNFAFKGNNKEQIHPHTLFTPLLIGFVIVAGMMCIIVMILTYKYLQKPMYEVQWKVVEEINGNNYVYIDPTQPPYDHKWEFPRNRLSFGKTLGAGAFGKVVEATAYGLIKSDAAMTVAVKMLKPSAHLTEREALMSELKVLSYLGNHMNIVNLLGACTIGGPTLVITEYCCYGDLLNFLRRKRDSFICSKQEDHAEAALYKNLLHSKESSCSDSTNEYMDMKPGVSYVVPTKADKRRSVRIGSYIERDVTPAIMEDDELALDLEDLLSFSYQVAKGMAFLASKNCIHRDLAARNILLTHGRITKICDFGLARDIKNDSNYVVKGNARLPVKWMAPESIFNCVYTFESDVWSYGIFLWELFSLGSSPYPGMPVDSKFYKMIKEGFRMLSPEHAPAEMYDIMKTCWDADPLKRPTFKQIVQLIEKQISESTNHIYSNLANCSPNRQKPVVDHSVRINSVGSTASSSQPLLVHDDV
T6 sequence (P49674 whole entry): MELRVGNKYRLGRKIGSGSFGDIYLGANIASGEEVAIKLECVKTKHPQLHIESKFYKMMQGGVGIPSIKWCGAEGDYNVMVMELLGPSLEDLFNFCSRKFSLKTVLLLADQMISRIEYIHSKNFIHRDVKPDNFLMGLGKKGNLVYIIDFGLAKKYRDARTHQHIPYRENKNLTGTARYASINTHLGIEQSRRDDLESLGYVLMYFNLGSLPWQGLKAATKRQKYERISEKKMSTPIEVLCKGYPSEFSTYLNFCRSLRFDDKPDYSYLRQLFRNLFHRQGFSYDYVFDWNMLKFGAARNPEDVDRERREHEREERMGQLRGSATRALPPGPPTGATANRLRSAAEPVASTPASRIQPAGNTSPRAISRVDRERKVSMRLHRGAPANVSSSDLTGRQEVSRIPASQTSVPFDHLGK
T5 sequence (P49760 whole entry): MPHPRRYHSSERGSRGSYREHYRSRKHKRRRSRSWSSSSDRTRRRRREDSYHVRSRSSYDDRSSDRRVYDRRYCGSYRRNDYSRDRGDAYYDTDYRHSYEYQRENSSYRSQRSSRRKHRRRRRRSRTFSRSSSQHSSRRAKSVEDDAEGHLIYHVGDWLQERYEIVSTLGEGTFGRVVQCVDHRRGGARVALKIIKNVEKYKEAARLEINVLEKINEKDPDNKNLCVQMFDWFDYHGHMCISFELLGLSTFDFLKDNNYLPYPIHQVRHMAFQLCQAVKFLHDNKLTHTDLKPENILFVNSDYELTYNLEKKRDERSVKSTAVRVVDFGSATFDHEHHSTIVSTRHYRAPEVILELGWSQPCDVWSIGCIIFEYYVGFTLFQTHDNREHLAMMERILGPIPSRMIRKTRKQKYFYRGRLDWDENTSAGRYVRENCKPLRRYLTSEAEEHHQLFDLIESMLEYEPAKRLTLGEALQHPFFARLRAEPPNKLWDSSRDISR

Compound: Cc1ccccc1-n1c(C(C)Nc2nc(N)nc3nc[nH]c23)nc2cccc(C)c2c1=O (stereo not shown) [CAL-130]
- Percent of Control Binding [1]: 100%
- Percent of Control Binding [2]: 100%
- Percent of Control Binding [3]: 100%
- Percent of Control Binding [4]: 100%
- Percent of Control Binding [5]: 100%
- Percent of Control Binding [6]: 100%
- Percent of Control Binding [7]: 100%
- Percent of Control Binding [8]: 100%
- Percent of Control Binding [9]: 100%
- Percent of Control Binding [10]: 100%
- Percent of Control Binding [11]: 100%
- Percent of Control Binding [12]: 100%
- Percent of Control Binding [13]: 100%
- Percent of Control Binding [14]: 100%
- Percent of Control Binding [15]: 100%
- Percent of Control Binding [16]: 100%
- Percent of Control Binding [17]: 100%
- Percent of Control Binding [18]: 100%
- Percent of Control Binding [19]: 100%
- Percent of Control Binding [20]: 100%
- Percent of Control Binding [21]: 100%
- Percent of Control Binding [22]: 100%
- Percent of Control Binding [23]: 100%
- Percent of Control Binding [24]: 100%
- Percent of Control Binding [25]: 100%
- Percent of Control Binding [26]: 100%
- Percent of Control Binding [27]: 100%
- Percent of Control Binding [28]: 100%
- Percent of Control Binding ([29]; PI3KCA (Table 2)): 12%
- Percent of Control Binding ([29]; PIK3CA (Table 1)): 12%
- Percent of Control Binding [30]: 100%
- Percent of Control Binding [31]: 100%
- Percent of Control Binding [32]: 100%
- Percent of Control Binding [33]: 100%
- Percent of Control Binding [34]: 100%
- Percent of Control Binding [35]: 100%
- Percent of Control Binding [36]: 100%
